Results published in ChEMBL document CHEMBL5512613, “Design and synthesis of novel 3-amino-5-phenylpyrazole derivatives as tubulin polymerization inhibitors targeting the colchicine-binding site” (Eur J Med Chem, 2024).
Activity calls are given as the source filed them. No cut-off for these calls is given here.

Assays:
HUVEC = test: Anti-vascular activity in human HUVEC cells assessed as reduction in number of loops formed at 6.25 to 50 nM incubated for 6 hrs by Matrigel based inverted fluorescence microscopy; type: functional, cell-based; details: dose 6.25-50 nM
MCF7 [1] = test: Induction of cell cycle arrest in human MCF7 cells assessed as proportion of cells at S phase at 25 nM incubated for 12 hrs by PI staining based flow cytometry (reference value: 21.1%); type: functional
MCF7 [2] = test: Induction of cell cycle arrest in human MCF7 cells assessed as increase in Cdc25c protein expression at 6.25 to 50 nM incubated for 24 hrs by western blot analysis; type: functional, cell-based; details: dose 6.25-50 nM
Tubulin (Homo sapiens) [3] = target: T1, Tubulin (Homo sapiens) (UniProt P68371+Q9H4B7+P0DPH7+P68366+Q13509+Q71U36+P04350+Q3ZCM7+P07437+P68363+Q9BQE3+Q6PEY2+Q13885+Q9BVA1+Q9BUF5); test: Displacement of [3H]colchicine from tubulin (unknown origin) at 5 uM incubated for 2 hrs by scinitillation proximity assay; type: protein-complex assay
MCF7 [4] = test: Induction of cell cycle arrest in human MCF7 cells assessed as proportion of cells at G1 phase at 25 nM incubated for 6 hrs by PI staining based flow cytometry (reference value: 64.5%); type: functional
MCF7 [5] = test: Antitumor activity against human MCF7 cells xenografted in BALB/c mouse assessed as inhibition of tumor growth by measuring decrease in tumor weight at 5 mg/kg, ip administered every 3 days for 21 days; type: functional; details: MCF7, 504 h, time 21 day, read-out: TGI
MCF7 [6] = test: Induction of apoptosis in human MCF7 cells assessed as increase in cleaved PARP protein expression at 6.25 to 50 nM incubated for 24 hrs by western blot analysis; type: functional, cell-based; details: dose 6.25-50 nM
Tubulin (Homo sapiens) [7] = target: T1, Tubulin (Homo sapiens); test: Inhibition of tubulin polymerization in human MCF7 cells assessed as disruption of microtubule network into punctate at 25 to 200 nM incubated for 8 hrs by DAPI staining based immunofluorescence assay; type: cell-based; details: dose 25-200 nM
MCF7 [8] = test: Inhibition of colony formation in human MCF7 cells at 5 to 20 nM incubated for 2 weeks in 5% CO2 at 37 degC by crystal violet staining based analysis; type: functional, cell-based; details: dose 5-20 nM
[9] = Toxicity against BALB/c mouse xenografted with human MCF7 cells assessed as body weight changes at 5 to 20 mg/kg, ip administered every 3 days for 21 days; type: organism-based; details: in vivo, 504 h, dose 5-20 mg/kg, time 21 day
MCF7 [10] = test: Induction of cell cycle arrest in human MCF7 cells assessed as increase in p21 protein expression at 6.25 to 50 nM incubated for 24 hrs by western blot analysis; type: functional, cell-based; details: dose 6.25-50 nM
MCF7 [11] = test: Induction of apoptosis in human MCF7 cells assessed as increase in Bim protein expression at 6.25 to 50 nM incubated for 24 hrs by western blot analysis; type: functional, cell-based; details: dose 6.25-50 nM
MCF7 [12] = test: Induction of cell cycle arrest in human MCF7 cells assessed as proportion of cells at G2 phase at 12.5 nM incubated for 24 hrs by PI staining based flow cytometry (reference value: 14.4%); type: functional
MDA-MB-231 = test: Antiproliferative activity against human MDA-MB-231 cells assessed as inhibition of cell growth incubated for 48 hrs by MTT assay; type: functional, cell-based; details: MDA-MB-231, 48 h

Structure (SMILES): COc1cc(C(=O)n2nc(N)cc2-c2ccc(C)cc2)cc(OC)c1OC
- Activity (HUVEC): Active
- Activity (MCF7 [1]): 22.9%
- Activity (MCF7 [2]): Active
- inhibition (Tubulin (Homo sapiens) [3]): 91.4%
- Activity (MCF7 [4]): 31.3%
- inhibition in vivo at 5 mg/kg (MCF7 [5]): 27%
- Activity (MCF7 [6]): Active
- inhibition (Tubulin (Homo sapiens) [7]): Active
- inhibition (MCF7 [8]): Active
- Activity [9]: Non-Toxic
- Activity (MCF7 [10]): Active
- Activity (MCF7 [11]): Active
- Activity (MCF7 [12]): 39.2%
- IC50 (MDA-MB-231): 40 nM
